Assay results published in paper PMC5218480 (PLoS ONE, 2017).

Tested on: MV-4-11 cells
Assay: Gene expression microarray analysis (Affymetrix PrimeView) and GSEA
Assay type: cell-based, human
Conditions: MV-4-11, 48 hours, 1 μM each

SMILES: Nc1ccc(-c2cccs2)cc1NC(=O)c1ccc2c(c1)cc(C1CC1)n2CCN1CCOCC1 [ACY-1035]
- genes down-regulated greater than 2-fold relative to vehicle control: 72 genes
